7 compounds from patent US20250276983A1, “COMPOUNDS AND METHODS FOR MODULATING HER2” (IAMBIC THERAPEUTICS, INC., priority 2022, published 2025) can be followed below.

The term IC50 denotes the concentration at which inhibition is half-maximal.

Read-outs that look alike come from different tables or passages of the source.

One test deals with BaF3_EGFRWT cells. In words: Cell growth inhibition assay, BaF3_EGFRWT. As to conditions: 72 h, 80 ng/mL recombinant human EGF, 3 days treatment, CellTiterGlo 2.0, read-out: EGFR WT IC50 (nM), cell growth inhibition. It counts as cell-based. On the technique in general: ATP-based viability assays read luminescence as a measure of living cells.
The subject of a further test is BaF3_HER2WT cells. In words: Cell growth inhibition assay, BaF3_HER2WT. It counts as cell-based. As to conditions: 72 h, 3 days treatment, CellTiterGlo 2.0, read-out: HER2 WT IC50 (nM), cell growth inhibition.
The next test deals with BaF3_HER2YVMA cells. In words: Cell growth inhibition assay, BaF3_HER2YVMA. It is filed as cell-based. As to conditions: 72 h, read-out: HER2-YVMA IC50 (nM), cell growth inhibition.
The target in the next test is wtERBB2 (Homo sapiens (Human), UniProt P04626). In words: HotSpot radiometric kinase activity assay, wtERBB2. It counts as biochemical. As to conditions: 30 nM wtERBB2, 10 μM 33P-ATP, 20 min preincubation, 2 hours, read-out: HER2 WT IC50. How it is done: (§1) The purpose of the wtERBB2, ERBB2-A775_G776insYVMA (ERBB2YVMA), wtEGFR biochemical assay was to evaluate the inhibition (% inhibition and IC50 values) of the small molecule inhibitors by using the “HotSpot” radiometric kinase activity assay. HotSpot assays monitor the […] of kinase substrate by the radioactive gamma phosphate of adenosine triphosphate (33P-ATP) during biochemical reactions. HotSpot assays was performed in steps upon completion of the kinase reaction: deposition of a reaction mixture aliquot onto P81 ion exchange paper, extensive washing of the aforementioned P81 paper using phosphoric acid to remove unbound radiolabeled 33P-ATP from the P81 paper, and finally visualization and quantification of the dried P81 paper utilizing a phosphoimager. […] Typical reaction solutions (10 μL final reaction volume) contained the following buffer conditions: 20 mM Hepes (pH 7.5), 10 mM MgCl2, 1 mM EGTA, 0.01% Brij35, 0.02 mg/mL BSA, 0.1 mM Na3VO4, 2 mM DTT, 1% DMSO. The assay was primed by preparing a fresh 0.2 mg/mL solution of pEY (Sigma Cat: P7244) substrate in the reaction buffer and supplementing that solution with […] of MnCl2 as substrate cofactor (Sigma Cat: M9522). The kinase of interest was then added to the solution at the appropriate concentration (30 nM wtERBB2 from, or 20 nM ERBB2YVMA, or 4 nM wtEGFR) and gently mixed prior to delivery of compound in 100% DMSO by acoustic dispensing (Beckman Echo550). Compound, Kinase, and substrate were allowed to incubate for 20 min at room temperature prior to the initiation of the reaction by addition of 33P-ATP (PerkinElmer Cat: NEG602, final conc 10 μM). […] IC50 determinations were made from a plot of kinase activity as a function of inhibitor concentration fit to the 4-parameter IC50 equation with the enzyme concentration held constant using GraphPad Prism (San Diego).

Another test addresses wtEGFR (Homo sapiens (Human), UniProt P00533). In words: HotSpot radiometric kinase activity assay, wtEGFR. It is filed as biochemical. The settings on record: 4 nM wtEGFR, 10 μM 33P-ATP, 20 min preincubation, 2 hours, read-out: EGFR WT IC50. The protocol:
as §1

Where [1] appears, read: BaF3_HER2YVMA cells, 3 days treatment, CellTiterGlo 2.0.

Chain of wtERBB2 (P04626 23-1255): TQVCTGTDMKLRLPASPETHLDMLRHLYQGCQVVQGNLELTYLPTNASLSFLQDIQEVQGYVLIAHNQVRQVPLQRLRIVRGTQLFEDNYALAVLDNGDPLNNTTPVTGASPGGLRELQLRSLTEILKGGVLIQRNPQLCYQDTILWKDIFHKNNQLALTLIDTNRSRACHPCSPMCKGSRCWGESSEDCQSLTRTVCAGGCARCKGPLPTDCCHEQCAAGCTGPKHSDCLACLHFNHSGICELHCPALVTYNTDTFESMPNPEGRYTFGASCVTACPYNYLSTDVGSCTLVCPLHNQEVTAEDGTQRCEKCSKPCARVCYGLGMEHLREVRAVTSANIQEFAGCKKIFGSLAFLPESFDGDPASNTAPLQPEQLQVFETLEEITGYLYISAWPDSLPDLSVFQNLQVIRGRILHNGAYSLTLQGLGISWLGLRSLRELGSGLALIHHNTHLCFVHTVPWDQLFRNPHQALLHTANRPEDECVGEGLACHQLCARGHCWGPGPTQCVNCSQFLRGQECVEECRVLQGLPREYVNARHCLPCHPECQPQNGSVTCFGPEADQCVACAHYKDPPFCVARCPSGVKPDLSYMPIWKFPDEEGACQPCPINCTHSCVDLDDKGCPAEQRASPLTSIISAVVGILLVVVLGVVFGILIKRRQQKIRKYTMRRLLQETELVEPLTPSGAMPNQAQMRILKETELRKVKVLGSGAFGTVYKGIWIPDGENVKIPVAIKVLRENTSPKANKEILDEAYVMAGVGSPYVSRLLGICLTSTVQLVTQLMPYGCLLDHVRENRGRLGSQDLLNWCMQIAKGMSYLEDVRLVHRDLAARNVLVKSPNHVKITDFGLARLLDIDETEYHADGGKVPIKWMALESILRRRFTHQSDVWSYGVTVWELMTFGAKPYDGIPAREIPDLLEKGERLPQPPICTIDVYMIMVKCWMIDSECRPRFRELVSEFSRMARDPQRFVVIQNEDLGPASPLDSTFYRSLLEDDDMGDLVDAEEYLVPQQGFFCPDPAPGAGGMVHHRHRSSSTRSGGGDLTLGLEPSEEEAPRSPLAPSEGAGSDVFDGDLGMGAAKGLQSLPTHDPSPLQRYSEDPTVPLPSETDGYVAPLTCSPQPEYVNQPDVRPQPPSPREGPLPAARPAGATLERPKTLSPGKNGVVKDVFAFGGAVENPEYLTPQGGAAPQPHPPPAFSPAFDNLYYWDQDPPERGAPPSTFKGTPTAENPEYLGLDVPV
Chain of wtEGFR (P00533 25-1210): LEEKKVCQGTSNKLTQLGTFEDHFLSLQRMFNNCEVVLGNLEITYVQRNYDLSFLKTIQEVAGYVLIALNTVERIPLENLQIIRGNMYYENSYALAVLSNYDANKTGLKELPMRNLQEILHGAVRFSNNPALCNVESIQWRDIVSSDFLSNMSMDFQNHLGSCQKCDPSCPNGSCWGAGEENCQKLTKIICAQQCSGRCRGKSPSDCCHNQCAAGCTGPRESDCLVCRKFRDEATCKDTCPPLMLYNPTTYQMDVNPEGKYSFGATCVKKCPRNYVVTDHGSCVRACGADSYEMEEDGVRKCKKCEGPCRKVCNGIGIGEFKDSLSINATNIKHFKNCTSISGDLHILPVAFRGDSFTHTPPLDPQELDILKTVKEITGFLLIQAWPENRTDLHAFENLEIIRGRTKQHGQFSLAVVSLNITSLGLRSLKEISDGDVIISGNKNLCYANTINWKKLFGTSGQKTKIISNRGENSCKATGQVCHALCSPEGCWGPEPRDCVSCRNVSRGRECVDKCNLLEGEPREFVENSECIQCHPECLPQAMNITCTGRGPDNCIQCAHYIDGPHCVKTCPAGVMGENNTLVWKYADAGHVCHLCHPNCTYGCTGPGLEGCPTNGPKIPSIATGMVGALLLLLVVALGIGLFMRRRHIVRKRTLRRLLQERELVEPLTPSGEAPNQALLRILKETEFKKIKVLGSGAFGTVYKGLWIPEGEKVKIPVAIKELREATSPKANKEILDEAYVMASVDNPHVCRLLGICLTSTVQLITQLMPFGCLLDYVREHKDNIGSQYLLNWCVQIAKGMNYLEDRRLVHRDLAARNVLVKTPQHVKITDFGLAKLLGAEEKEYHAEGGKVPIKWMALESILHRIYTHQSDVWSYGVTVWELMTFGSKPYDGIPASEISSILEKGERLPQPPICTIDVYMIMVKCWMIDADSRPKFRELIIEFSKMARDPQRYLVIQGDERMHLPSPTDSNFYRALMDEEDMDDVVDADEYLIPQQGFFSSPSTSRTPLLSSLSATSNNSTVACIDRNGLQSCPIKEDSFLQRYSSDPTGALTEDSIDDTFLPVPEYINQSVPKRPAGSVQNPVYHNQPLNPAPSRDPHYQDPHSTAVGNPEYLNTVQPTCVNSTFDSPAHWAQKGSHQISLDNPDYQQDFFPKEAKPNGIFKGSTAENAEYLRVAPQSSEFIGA

For the compound `C=CC(=O)N1CC(c2ccn(-c3ccn4ncnc(Nc5ccc(Oc6ccn7ncnc7c6)c(C)c5)c34)n2)C1` [Example 10, 1-(3-(1-(4-((4-([1,2,4]triazolo[1,5-a]pyridin-7-yloxy)-3-methylphenyl)amino)pyrrolo[2,1-f][1,2,4]triazin-5-yl)-1H-pyrazol-3-yl)azetidin-1-yl)prop-2-en-1-one], the IC50 with BaF3_EGFRWT cells was 1500 to 5000 nM; with BaF3_HER2WT cells it was 200 to 500 nM; in the test on BaF3_HER2YVMA cells (setting [1]), 500 to 1500 nM; at wtERBB2, < 200 nM; on wtEGFR, < 200 nM.

Take `C=CC(=O)N1CCCC(c2ccn3ncnc(Nc4ccc(Oc5ccn6ncnc6c5)c(C)c4)c23)C1` (centres unmarked) [Example 12, 1-(3-(4-((4-([1,2,4]triazolo[1,5-a]pyridin-7-yloxy)-3-methylphenyl)amino)pyrrolo[2,1-f][1,2,4]triazin-5-yl)piperidin-1-yl)prop-2-en-1-one]: the IC50 with BaF3_EGFRWT cells is 1500 to 5000 nM; in the test with BaF3_HER2WT cells, < 200 nM; in the test on BaF3_HER2YVMA cells (setting [1]), < 200 nM; at wtERBB2, < 200 nM; on wtEGFR, < 200 nM.

For `Cc1cc(Nc2ncnn3ccc(C4CN(C(=O)/C=C/CN5CCCCC5)C4)c23)ccc1Oc1ccn2ncnc2c1` [Example 94, (E)-1-(3-(4-((4-([1,2,4]triazolo[1,5-a]pyridin-7-yloxy)-3-methylphenyl)amino)pyrrolo[2,1-f][1,2,4]triazin-5-yl)azetidin-1-yl)-4-(piperidin-1-yl)but-2-en-1-one], the IC50 in the test with BaF3_EGFRWT cells is 1500 to 5000 nM; in the test on BaF3_HER2WT cells, < 200 nM; in the test with BaF3_HER2YVMA cells (setting [1]), < 200 nM; on wtERBB2, < 200 nM; on wtEGFR, < 200 nM.

For the compound `Cc1cc(Nc2ncnn3ccc(C4CN(C(=O)/C=C/CN5CCCC5)C4)c23)ccc1Oc1ccn2ncnc2c1` [Example 97, (E)-1-(3-(4-((4-([1,2,4]triazolo[1,5-a]pyridin-7-yloxy)-3-methylphenyl)amino)pyrrolo[2,1-f][1,2,4]triazin-5-yl)azetidin-1-yl)-4-(pyrrolidin-1-yl)but-2-en-1-one], the IC50 in the test on BaF3_EGFRWT cells is 1500 to 5000 nM; in the test on BaF3_HER2WT cells it was < 200 nM; in the test on BaF3_HER2YVMA cells, < 200 nM; at wtERBB2, < 200 nM; at wtEGFR, < 200 nM.

On to `Cc1cc(Nc2ncnn3ccc(C4CCN(C(=O)/C=C/CN(C)C)C4)c23)ccc1Oc1ccn2ncnc2c1` (centres unmarked) [Example 98, (E)-1-(3-(4-((4-([1,2,4]triazolo[1,5-a]pyridin-7-yloxy)-3-methylphenyl)amino)-pyrrolo-[2,1-f][1,2,4]triazin-5-yl)pyrrolidin-1-yl)-4-(dimethylamino)but-2-en-1-one], for which the IC50 was 1500 to 5000 nM in the test on BaF3_EGFRWT cells; < 200 nM in the test with BaF3_HER2WT cells; 200 to 500 nM in the test on BaF3_HER2YVMA cells (setting [1]); < 200 nM on wtERBB2; < 200 nM at wtEGFR.

On to `Cc1cc(Nc2ncnn3ccc(C4CN(C(=O)/C=C/CN(C)C)C4)c23)ccc1Oc1ccc2c(c1)ncn2C` [Example 101, (E)-4-(dimethylamino)-1-(3-(4-((3-methyl-4-((1-methyl-1H-benzo[d]imidazol-5-yl)oxy)phenyl)amino)pyrrolo[2,1-f][1,2,4]triazin-5-yl)azetidin-1-yl)but-2-en-1-one], for which the IC50 was 1500 to 5000 nM in the test on BaF3_EGFRWT cells; < 200 nM in the test with BaF3_HER2WT cells; < 200 nM in the test on BaF3_HER2YVMA cells (setting [1]); < 200 nM at wtERBB2; < 200 nM on wtEGFR.

On to `C=CC(=O)N1CCC(c2ccn3ncnc(Nc4ccc(Oc5ccc6c(c5)ncn6C)c(C)c4)c23)CC1` [Example 113, 1-(4-(4-((3-methyl-4-((1-methyl-1H-benzo[d]imidazol-5-yl)oxy)phenyl)amino)pyrrolo[2,1-f][1,2,4]triazin-5-yl)piperidin-1-yl)prop-2-en-1-one], for which the IC50 in the test with BaF3_EGFRWT cells was 500 to 1500 nM; in the test on BaF3_HER2WT cells, < 200 nM; in the test on BaF3_HER2YVMA cells (setting [1]) it was < 200 nM; at wtERBB2, < 200 nM; on wtEGFR it was < 200 nM.
